Data from US8344101B2, “Composition for improving brain function and method for improving brain function” (Calpis Co., Ltd., priority 2009, dated 2013).

System: scopolamine-induced amnesia
Experiment: Y-shaped maze test of spontaneous alternation behavior in mice with scopolamine-induced amnesia
Assay type: in vivo
Settings: male ddY mice, scopolamine 1 mg/kg s.c. 30 minutes before test
Protocol: Male mice (n=15 to 30) of the ddY strain (approximately 7-week old) were used, and they took food and water ad lib. Test substances used were 150 nmol/kg weight (380 μg/kg weight) and 500 nmol/kg weight (1280 μg/kg weight) of […](SEQ ID NO: 2 ). The test substances were administered to the mice once orally […] the execution of a Y-shaped maze test for evaluation of spontaneous alternation behavior. Further, 30 minutes before the execution of the Y-shaped maze test, 1 mg/kg weight of scopolamine was subcutaneously administered on the backs of the mice in order to induce brain dysfunction (dysmnesia and/or cognitive impairment) in the mice. In the Y-shaped maze test, a Y-shaped maze was used as an experimental device, in which the length of each arm was 40 cm, the height of the wall was 12 cm, the width of the floor was 3 cm, and the width of the upper part was 10 cm, and three arms were connected to each other at an angle of 120 degrees. Each of the mice was placed at the tip of any one of the arms of the Y-shaped maze, and then let go to freely explore in the maze for 8 minutes. The sequence of the arms each of the mice entered was recorded. The number of entries by each of the mice for each of the anus during the measurement time was counted to be the total number of entries. In the sequence, the combination in which three different arms were selected in succession (for example, with the three arms respectively called A, B, and C, if the sequence of the arms entered is ABCBACACB, the count is 4 inclusive of overlapping) was investigated, and the number of the count was used as the number of spontaneous alternation behavior. The percentage of spontaneous alternation behavior was calculated by dividing the number of spontaneous alternation behavior by a number obtained by subtracting 2 from the total number of entries, and multiplying a resultant number by 100. The percentage of spontaneous alternation behavior was used as an indicator. […] The measured values were expressed in the form of mean ±standard error for each group. A significant difference between the control group and the scopolamine control group was calculated using Student's t-test. Further, a significant difference between the scopolamine control group and the […] (SEQ ID NO: 2 )-administered group was calculated using Student's t-test.
Male mice (n=15 to 30) of the ddY strain (approximately 7-week old) were used, and they took food and water ad lib. Test substances used here were: 500 nmol/kg weight (1280 μg/kg weight) of […](SEQ ID NO: 2 ); 500 nmol/kg weight (1140 μg/kg weight) of […](SEQ ID NO: 1 ) ([…]); 500 nmol/kg weight (1400 μg/kg weight) of […]([…]) (SEQ ID NO: 3 ); and 500 nmol/kg weight (1150 μg/kg weight) of Ser-Trp-Met-His-Gln-Pro-His-Gln-Pro-Leu-Pro-Pro-Thr-Val-Met-Phe-Pro-Pro-Gln (SWMHQPHQPLPPTVMFPPQ) (SEQ ID NO: 5). The test substances were administered to the mice once orally 60 minutes before the execution of a Y-shaped maze test for evaluation of spontaneous alternation behavior. Further, 30 minutes before the execution of the Y-shaped maze test, 1 mg/kg weight of scopolamine was subcutaneously administered on the backs of the mice in order to induce brain dysfunction (dysmnesia and/or cognitive impairment) in the mice. […] The arms each of the mice entered were sequentially recorded. The number of entries by each of the mice for each of the arms during the measurement time was counted to be the total number of entries. […]

[1] = Example 2, single oral dose 500 nmol/kg weight 60 minutes before Y-shaped maze test, FIG. 2

SWMHQPHQPLPPTVMFPPQSVL (Synthetic functional peptide)
prophylactic activity against amnesia (percentage of spontaneous alternation behavior) (Example 1, single oral dose ranging from 150 nmol/kg weight to 500 nmol/kg weight (380 to 1280 μg/kg weight), given 60 before Y-shaped maze test, FIG. 1): had a prophylactic activity against amnesia | prophylactic activity against amnesia (percentage of spontaneous alternation behavior) [1]: had a prophylactic activity against amnesia

LQSWMHQPHQPLPPTVMFPPQSVL (Synthetic functional peptide)
prophylactic activity against amnesia (percentage of spontaneous alternation behavior) [1]: had a prophylactic activity against amnesia

SWMHQPHQPLPPTVMFPPQ (Synthetic comparative example peptide) [Ser-Trp-Met-His-Gln-Pro-His-Gln-Pro-Leu-Pro-Pro-Thr-Val-Met-Phe-Pro-Pro-Gln, C-terminally truncated related peptide tested for comparison]
prophylactic activity against amnesia (percentage of spontaneous alternation behavior) [1]: did not show any activity

MHQPHQPLPPTVMFPPQSVL (Synthetic functional peptide)
prophylactic activity against amnesia (percentage of spontaneous alternation behavior) [1]: had a prophylactic activity against amnesia
